According to article PMC4796655, “Structural insights into the methyl donor recognition model of a novel membrane-binding protein UbiG” (Scientific Reports, 2016):

Key:
Assay type in all cases: binding
Settings in all cases: read-out: [drawing 1] /
[1] = target: T1, UbiG (Escherichia coli, UniProt P17993, DEL165-187); assay: isothermal titration calorimetry; X-ray structure of the complex […] Å
T1 construct: full-length, 240 residues, pET28a-UbiG (1-240), expressed in E. coli BL21 (DE3); purified as described previously
T1 sequence (P17993 other isoform, or with tags, fused parts or gaps DEL165-187): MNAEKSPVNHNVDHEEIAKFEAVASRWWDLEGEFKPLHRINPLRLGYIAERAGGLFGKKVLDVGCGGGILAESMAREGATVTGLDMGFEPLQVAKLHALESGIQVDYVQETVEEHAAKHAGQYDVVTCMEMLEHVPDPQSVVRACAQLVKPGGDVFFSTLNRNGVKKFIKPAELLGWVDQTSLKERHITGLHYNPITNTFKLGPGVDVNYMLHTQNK

[2] = target: T2, UbiG (Escherichia coli, UniProt P17993, V172A/Y176A); assay: isothermal titration calorimetry
T2 construct: full-length, 240 residues, pET28a-UbiG (1-240), expressed in E. coli BL21 (DE3); purified as described previously
T2 sequence (P17993 whole entry V172A/Y176A): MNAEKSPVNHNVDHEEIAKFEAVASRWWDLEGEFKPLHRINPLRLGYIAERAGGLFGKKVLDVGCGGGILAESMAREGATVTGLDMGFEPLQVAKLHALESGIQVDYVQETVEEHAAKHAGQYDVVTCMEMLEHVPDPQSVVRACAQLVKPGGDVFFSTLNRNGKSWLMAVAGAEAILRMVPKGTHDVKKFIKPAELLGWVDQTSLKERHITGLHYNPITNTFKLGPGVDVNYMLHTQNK
From the text: (§1) isothermal titration calorimetry on UbiG

[3] = target: T3, UbiG (Escherichia coli, UniProt P17993, I177A/P182A/V181A); assay: isothermal titration calorimetry
T3 construct: full-length, 240 residues, pET28a-UbiG (1-240), expressed in E. coli BL21 (DE3); purified as described previously
T3 sequence (P17993 whole entry I177A/V181A/P182A): as the sequence (P17993 whole entry V172A/Y176A) above, with A172V, A176Y, I177A, V181A, P182A counted along it
From the text: as §1

[4] = target: T4, UbiG (Escherichia coli, UniProt P17993); assay: isothermal titration calorimetry
T4 construct: full-length, 240 residues, pET28a-UbiG (1-240), expressed in E. coli BL21 (DE3); purified as described previously
T4 sequence (P17993 1-240): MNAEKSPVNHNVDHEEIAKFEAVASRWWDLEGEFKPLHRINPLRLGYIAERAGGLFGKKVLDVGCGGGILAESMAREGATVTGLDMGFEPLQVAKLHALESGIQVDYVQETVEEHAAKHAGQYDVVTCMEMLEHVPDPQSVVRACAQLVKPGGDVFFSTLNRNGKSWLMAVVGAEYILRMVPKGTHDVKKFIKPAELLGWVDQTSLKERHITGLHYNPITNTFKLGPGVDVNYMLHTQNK
From the text: as §1

Kd [1]: 1.84 ± 0.16 µM
Kd [2]: 3.37 ± 0.84 µM
Kd [3]: 2.77 ± 0.36 µM
Kd [4]: 104 ± 17.2 µM
SMILES: Nc1ncnc2c1ncn2[C@@H]1O[C@H](CSCC[C@H](N)C(=O)O)[C@@H](O)[C@H]1O [SAH]
